The source of these data is patent publication US4540517A, “Antibiotic TAN-420” (Takeda Chemical Industries, Ltd., priority 1982, dated 1985).

Data set [1] relates to gram-positive bacteria, fungi and protozoae. As to the kind of experiment: Antimicrobial activity (general statement). The settings on record: considered, relative to TAN-420B.
Data set [2] relates to Pseudomonas aeruginosa IFO 3080. The data set can be described thus: Agar dilution assay, antimicrobial activity. In kind it is cell-based. On the procedure:
(§1) The antimicrobial activity of Antibiotic TAN-420B, C, D and E was assayed by the agar dilution method using Typticase soy agar (Baltimore Biological Laboratories, U.S.A.) as the test medium.

A further data set has as its system B. pumilus IFO 3813. As to the kind of experiment: Agar dilution assay, antimicrobial activity. In kind it is cell-based. To be noted: Bacillus pumilus. On the procedure: as §1
In general terms: In agar dilution the substance is mixed into plates at graded concentrations.

In the next data set the test system is B. megaterium IFO 12108. The data set can be described thus: Agar dilution assay, antimicrobial activity. Type of data set: cell-based. To be noted: Priestia megaterium. As to the method:
as §1

The next data set concerns B. cereus IFO 3514. As to the kind of experiment: Agar dilution assay, antimicrobial activity. In kind it is cell-based. To be noted: Bacillus cereus. On the procedure:
as §1

In a further data set the test system is B. brevis IFO 3331. The data set can be described thus: Agar dilution assay, antimicrobial activity. The settings on record: Brevibacillus brevis. Type of data set: cell-based. On the procedure: as §1
The subject of a further data set is Escherichia coli K12. As to the kind of experiment: Agar dilution assay, antimicrobial activity. In kind it is cell-based. On the procedure: as §1
The test system of data set [3] is Micrococcus flavus IFO 3242. The data set can be described thus: Agar dilution assay, antimicrobial activity. In kind it is cell-based. On the procedure: as §1
Data set [4] relates to Staphylococcus aureus FDA 209P. As to the kind of experiment: Agar dilution assay, antimicrobial activity. In kind it is cell-based. To be noted: FDA209P, read-out: Minimal inhibitory concentration. On the procedure: as §1
Data set [5] relates to Bacillus subtilis PCI 219. The data set can be described thus: Agar dilution assay, antimicrobial activity. Type of data set: cell-based. On the procedure:
as §1

A further data set deals with Tetrahymena pyriformis W. As to the kind of experiment: Liquid dilution assay of antiprotozoal activity. The settings on record: read-out: minimal inhibitory concentration. Type of data set: cell-based.
A short description of data set [6]: Acute toxicity (mouse, intraperitoneal). The settings on record: in vivo, ip. As to the method:
As regards the acute toxocity of Antibiotic TAN-420 (mouse, intraperitoneal), the LD50 value of TAN-420C was 200 to 400 mg/kg, that of TAN-420D was 100 mg/kg, and that of TAN-420E was 50 mg/kg. It is therefore, considered that the toxicity of Antibiotic TAN-420 is low.

A short description of data set [7]: Toxicity compared with herbimycin A. The settings on record: comparison in words.
For data set [8] the following is noted: known from Journal of Antibiotics 32, 255-261 (1979), Tetrahedron Letters No. 44, 4323-4326 (1979); cited from earlier work.
Where [9] appears, read: IFO3080, agar dilution, Pseudomonas aeruginosa IFO 3080, read-out: Minimal inhibitory concentration.
The mark [10] stands for this setting: IFO3813, agar dilution, B. pumilus IFO 3813, read-out: Minimal inhibitory concentration.
The mark [11] stands for this setting: IFO12108, agar dilution, B. megaterium IFO 12108, read-out: Minimal inhibitory concentration.
The mark [12] stands for this setting: IFO3514, agar dilution, B. cereus IFO 3514, read-out: Minimal inhibitory concentration.
The mark [13] stands for this setting: IFO3331, agar dilution, B. brevis IFO 3331, read-out: Minimal inhibitory concentration.
Setting [14] is: agar dilution, Escherichia coli K12, read-out: Minimal inhibitory concentration.
Setting [15] is: IFO3242, agar dilution, Micrococcus flavus IFO 3242, read-out: Minimal inhibitory concentration.
The mark [16] stands for this setting: agar dilution, Staphylococcus aureus FDA 209P.
Where [17] appears, read: PCI219, agar dilution, Bacillus subtilis PCI 219, read-out: Minimal inhibitory concentration.
Setting [18] is: liquid dilution assay, Tetrahymena pyriformis W.

Converted amounts (≈) assume the structure as drawn. Like-named read-outs stand apart in the source and are kept apart here.

In the case of `COC1C=CC=C(C)C(=O)Nc2cc(O)cc(c2O)C(OC)C(C)CC(O)C(O)C(C)C=C(C)C1OC(N)=O` (stereo not drawn) [TAN-420A], in [1], the antimicrobial activity result was “of the same order as that of TAN-420B”.
As to `COC1C=CC=C(C)C(=O)NC2=CC(=O)C=C(C2=O)C(OC)C(C)CC(O)C(O)C(C)C=C(C)C1OC(N)=O` (stereo not drawn) [TAN-420B], the MIC in data set [2] (Pseudomonas aeruginosa, IFO3080, read-out: Minimal inhibitory concentration) was above 100 µg/mL; in the data set with B. pumilus IFO 3813 (IFO3813, read-out: Minimal inhibitory concentration), 100 µg/mL (≈ 183 µM); in the data set on B. megaterium IFO 12108 (IFO12108, read-out: Minimal inhibitory concentration) it was 100 µg/mL (≈ 183 µM); with B. cereus IFO 3514 (IFO3514, read-out: Minimal inhibitory concentration), 100 µg/mL (≈ 183 µM); with B. brevis IFO 3331 (IFO3331, read-out: Minimal inhibitory concentration) it was 50 µg/mL (≈ 91.5 µM); in the data set with Escherichia coli K12 (Escherichia coli, K12, read-out: Minimal inhibitory concentration), above 100 µg/mL. Moreover, the MIC in [3] (Micrococcus flavus, IFO3242, read-out: Minimal inhibitory concentration) was 25 µg/mL (≈ 45.7 µM); in data set [4] (Staphylococcus aureus), 100 µg/mL (≈ 183 µM); in data set [5] (Bacillus subtilis, PCI219, read-out: Minimal inhibitory concentration), above 100 µg/mL; with Tetrahymena pyriformis W (Tetrahymena pyriformis) it was 40 µg/mL (≈ 73.2 µM).
The term LD50 denotes the dose expected to kill half of the subjects tested. Take `COC1C=CC=C(C)C(=O)Nc2cc(O)cc(c2O)C(OC)C(C)CC(OC)C(O)C(C)C=C(C)C1OC(N)=O` (stereo not drawn) [TAN-420C]: the MIC is above 100 µg/mL in data set [2] (setting [9]); 100 µg/mL (≈ 178 µM) with B. pumilus IFO 3813 (setting [10]); 100 µg/mL (≈ 178 µM) with B. megaterium IFO 12108 (setting [11]); 100 µg/mL (≈ 178 µM) in the data set with B. cereus IFO 3514 (setting [12]); 50 µg/mL (≈ 88.9 µM) in the data set on B. brevis IFO 3331 (setting [13]); above 100 µg/mL with Escherichia coli K12 (setting [14]). Further, the MIC in data set [3] (setting [15]) is 25 µg/mL (≈ 44.4 µM); in data set [4] (setting [16]) it was 100 µg/mL (≈ 178 µM); in [5] (setting [17]), above 100 µg/mL; with Tetrahymena pyriformis W (setting [18]) it was 10 µg/mL (≈ 17.8 µM). The same compound registered an LD50 in data set [6] of 200 to 400 mg/kg. Also, in data set [7], the “toxicity relative to herbimycin A” value is reported as “lower than that of herbimycin A”.
For `COC1C=CC=C(C)C(=O)NC2=CC(=O)C=C(C2=O)C(OC)C(C)CC(OC)C(O)C(C)C=C(C)C1OC(N)=O` (stereo not drawn) [TAN-420D], the MIC in [2] (setting [9]) was above 100 µg/mL; in the data set on B. pumilus IFO 3813 (setting [10]), 100 µg/mL (≈ 178 µM); with B. megaterium IFO 12108 (setting [11]), 100 µg/mL (≈ 178 µM); in the data set on B. cereus IFO 3514 (setting [12]), 100 µg/mL (≈ 178 µM); with B. brevis IFO 3331 (setting [13]), 50 µg/mL (≈ 89.2 µM); in the data set with Escherichia coli K12 (setting [14]), above 100 µg/mL. Moreover, the MIC was 25 µg/mL (≈ 44.6 µM) in [3] (setting [15]), 100 µg/mL (≈ 178 µM) in [4] (setting [16]), above 100 µg/mL in data set [5] (setting [17]) and 4 µg/mL (≈ 7.13 µM) in the data set with Tetrahymena pyriformis W (setting [18]). The compound further came in with an LD50 in [6] of 100 mg/kg. For the same compound, the “toxicity relative to herbimycin A” value in data set [7] was “lower than that of herbimycin A”.
`COC1C=CC=C(C)C(=O)Nc2cc(O)cc(c2O)C(OC)C(C)CC(OC)C(OC)C(C)C=C(C)C1OC(N)=O` (stereo not drawn) [TAN-420E]: the MIC is above 100 µg/mL in data set [2] (setting [9]); 100 µg/mL (≈ 173 µM) in the data set with B. pumilus IFO 3813 (setting [10]); 50 µg/mL (≈ 86.7 µM) in the data set with B. megaterium IFO 12108 (setting [11]); 100 µg/mL (≈ 173 µM) with B. cereus IFO 3514 (setting [12]); 50 µg/mL (≈ 86.7 µM) in the data set on B. brevis IFO 3331 (setting [13]); above 100 µg/mL in the data set on Escherichia coli K12 (setting [14]). Besides, the MIC in data set [3] (setting [15]) stood at 50 µg/mL (≈ 86.7 µM); in [4] (setting [16]), 100 µg/mL (≈ 173 µM); in data set [5] (setting [17]), 100 µg/mL (≈ 173 µM); with Tetrahymena pyriformis W (setting [18]), 2 µg/mL (≈ 3.47 µM). The compound also displayed an LD50 in data set [6] of 50 mg/kg. The “toxicity relative to herbimycin A” value in data set [7] is listed as “lower than that of herbimycin A”.
Take `COC1C=CC=C(C)C(=O)NC2=CC(=O)C=C(C2=O)C(OC)C(C)CC(OC)C(OC)C(C)C=C(C)C1OC(N)=O` (stereo not drawn) [herbimycin A]: the herbicidal activity result in data set [8] is “has herbicidal activity”.
